| Compound | melting point |
| --- | --- |
| O=C(O)C1(c2ccccc2)CCCCC1 | 118 to 121 °C |
| C=C1C[C@]2(C)C(=O)CC[C@H]2[C@@H]2CCC3=CC(=O)CC[C@]3(C)[C@@H]12 | 157 to 160 °C |
| CCCCCCCCCCC[C@H](O)C[C@@H]1OC(=O)[C@H]1CCCCCC | 61 to 62 °C |
| CCOC(=O)c1c[nH]c2nc(-c3ccncc3)c(F)cc2c1=O | 280 to 285 °C |
| CCCCCCCCCCCCCCCCCCOC(=O)c1cc(C(=O)OCCCCCCCCCCCCCCCCCC)c(C(=O)O)cc1C(=O)O | 133 to 137 °C |
| O=C(O)c1ccc(OC(F)(F)F)c([N+](=O)[O-])c1 | 137 to 139 °C |
| CCc1cccc(CC)c1NC(=O)Nc1cnc(C)nc1-c1ccccc1Cl | 186 to 187 °C |
| CC(C)c1cc(S(=O)(=O)c2ccc(N)cc2)cc(N2CCCC2)n1 | 148 to 150 °C |
| CCc1nnc(CCCOc2c(C)cc(-c3noc(C)n3)cc2C)s1 | 83 to 84 °C |
| CC(C)(C)NC(=O)[C@@H]1C[C@H](Cl)CN1C(=O)[C@@H](O)[C@H](Cc1ccccc1)NC(=O)[C@H](CC(N)=O)NC(=O)OC(C)(C)C | 126 to 132 °C |
| COc1ccc(NC(=O)N[C@H]2C[C@@](N)(C(=O)O)[C@@H]3[C@@H](C(=O)O)[C@@H]32)cc1 (relative stereo) | > 250 °C |
| COC(=O)Nc1nc(C)c(-c2nc3ccccc3c(=O)n2-c2ccc(Cl)cc2)s1 | > 275 °C |
| Cc1ccc(-c2ccc3c(c2)C=C(C(=O)N[C@H]2CC[C@H](CN(C)C4CCN(C(=O)OC(C)(C)C)CC4)CC2)CCO3)cc1 | 146 to 150 °C |
| CCOc1cccc(C)c1N(C(=O)n1nc(OCC)n(C)c1=O)S(N)(=O)=O | 147 °C |
| CC(C)(C)c1cc(C2NC(=O)NC2c2ccccc2)cc(C(C)(C)C)c1O (configuration not stated) | > 300 °C |
| O=S1N=C(NCCCOc2cccc(CN3CCCCC3)c2)C(NCc2ccccn2)=N1 (configuration not stated) | 140 to 143 °C |
| CS(=O)(=O)OC1CC(n2ccc(=O)[nH]c2=O)OC1COC(c1ccccc1)(c1ccccc1)c1ccccc1 (configuration not stated) | 106 to 108 °C |
| O=c1oc(-c2cccc(Cl)c2)nc2ccccc12 | 158 to 160 °C |
| CSC(=O)C(=O)c1ccc2oc(-c3ccccc3)cc2c1 | 124 to 126 °C |
| COc1ccc2c(c1)CCNC(=O)C2 | 152 to 154 °C |
| O=C1Nc2cccc(-c3ccoc3)c2C12COc1cc3c(cc12)OCO3 (configuration not stated) | 230 to 231 °C |
| N#CC1(N2CCN(c3ccccc3)CC2)CCCCC1 | 133 to 135 °C |

| Compound | melting point |
| --- | --- |
| CC(C)N(CCC1(c2ccccc2)C(=O)NC(C)N2CCCCC21)C(C)C (configuration not stated) | 142 to 145 °C |
| N#CCC(=NC#N)N1CCCC1 | 45 °C |
| Cc1ccc(S(=O)(=O)n2ccc3cc(F)cnc32)cc1 | 160 °C |
| COc1cc2c(cc1OC)C(=O)C(C(=O)C(F)(F)F)CS2 (configuration not stated) | 148 to 151 °C |
| CC(c1oc2ccccc2c(=O)c1-c1cccc(F)c1)n1nc(-c2ccc(F)nc2)c2c(N)ncnc21 (configuration not stated) | 203 to 206 °C |
| COC1(c2cc(F)cc(Sc3ccc(Cc4ccc(F)cc4)cc3)c2)CCOCC1 | 62 to 64 °C |
| CC1(C)Cc2cccc(OCCNCc3cncc(C4=CCCC4)c3)c2O1 | 141 °C |
| CC(=O)OC[C@H]1O[C@@H](c2nc(C(N)=O)c(N)[nH]2)[C@H](OC(C)=O)[C@@H]1OC(C)=O | 128 to 129 °C |
| Nc1nc2c(s1)CCN(CC=Cc1ccccc1[N+](=O)[O-])CC2 | 125 to 128 °C |
| C[C@@H]([C@H]1CO1)[C@](O)(Cn1cncn1)c1ccc(F)cc1F (relative stereo) | 160 to 180 °C |
| COC(=O)c1cn(C2CC2)c2cc(F)c(F)cc2c1=O | 223 to 224 °C |
| CC(C)(CCl)C(=O)N(Cc1ccccc1Cl)OC(=O)c1ccccc1 | 117 to 120 °C |
| CCCCCCCCc1c(C)nc2cc(C)nn2c1O | 199 °C |
| CS(=O)(=O)n1cc(F)c(=O)[nH]c1=O | 223 to 224 °C |
| NC(=O)C1(/C=C2\CN3C(=O)CC3O2)C=CC=CC1 (configuration not stated) | 197 to 199 °C |
| O=C(c1cc(C(F)(F)F)cc(C(F)(F)F)c1)N1CCC2(CC1)C(=O)NCN2c1ccc(Cl)cc1 | 233 to 235 °C |
| NC(=O)OCc1cc2c(Oc3ccc(Cl)cc3)cncc2s1 | 113 to 115 °C |
| O=C1NC(=O)C(N(Cc2ccc(Br)cc2)c2ccc(CCNCC(O)COc3ccc(OCc4ccccc4)cc3)cc2)S1 (configuration not stated) | 50 to 52 °C |
| Cc1ccc(Oc2ccc(C#CC(C)N(O)C(N)=O)o2)cn1 (configuration not stated) | 149 °C |
| Nc1ccc(-c2cc(=O)c(C(=O)O)cn2-c2cccnc2)cc1 | 207 to 208 °C |
| CNc1nc2ccccc2cc1[N+](=O)[O-] | 160 °C |
| Nc1nc2cc(Cl)c(Cl)cc2nc1-c1ccco1 | 222 to 223 °C |

| Compound | melting point |
| --- | --- |
| CCCc1c(OCC(O)COc2cc(NC(=O)c3nnn[nH]3)c(C)cc2Br)ccc(C(C)=O)c1O (configuration not stated) | 155 to 158 °C |
| CN1Cc2c(C(=O)OC(C)(C)C)ncn2-c2ccncc2C1=O | 214 to 215 °C |
| CCOC(=O)C1CCn2c(cc3cc(OC)ccc32)C1 (configuration not stated) | 104 to 105 °C |
| Nc1nc(Cl)cc(OC(F)F)n1 | 118 to 119 °C |
| N#CCS(=O)(=O)c1ccc([N+](=O)[O-])cc1 | 166 to 168 °C |
| O=Cc1ccc2c(c1)ncn2-c1cccc(-c2ccccc2)c1 | 170 to 172 °C |
| CC(C)=CCOc1ccc(C(=O)C=Cc2ccc(C)cc2)c(O)c1 | 108 to 109 °C |
| CCOC(=O)C1=Cc2cc(Cl)c(O)cc2OC1C(F)(F)F (configuration not stated) | 118 to 125 °C |
| CSc1ccc(-c2nnc(Cl)cc2-c2ccccc2)cc1 | 158 °C |
| O=C(Nc1nccs1)C(=O)c1cn(Cc2ccc(F)cc2)c2ccccc12 | 233 to 237 °C |
| O=C(O)c1cc2cc3[nH]c(=O)[nH]c3cc2[nH]1 | > 270 °C |
| COc1cc(OC)c2c(=O)[nH]c(-c3cc(C)c(OCCN4CC(NC(C)=O)C4)c(C)c3)nc2c1 | 112 to 114 °C |
| Cc1cc(=O)[nH]c2cc(OCCCN3CCC(NC(=O)c4ccccc4)CC3)ccc12 | 275 to 276 °C |
| c1ccc(-c2nnc3n2-c2ccccc2Cn2cccc2-3)nc1 | 255 to 257 °C |
| COc1cc2c(cc1OC)N(C)C(=O)CN=C2c1ccc(Cl)c(Cl)c1 | 174 to 177 °C |
| Cc1c(Cc2cc(=O)n(C3CCCCC3)[nH]2)c2ccccc2n1C(=O)c1ccc(Cl)cc1 | 98 °C |
| CCOC(=O)C(CCC#N)(C(=O)OCC)c1ccc([N+](=O)[O-])cn1 | 59.5 to 61 °C |
| CCOCCCC(NC=O)C1(c2ccc(Cl)cc2)CCC1 (configuration not stated) | 58 to 59 °C |
| c1cc(-c2n[nH]c3c2Cc2ccc(CN4CCCC4)cc2-3)cs1 | 133 to 134 °C |
| O=C1c2cccc3c(N4CCCC4)c(F)cc(c23)C(=O)N1O | 224 to 226 °C |
| Cc1cc(-c2ccc(S(N)(=O)=O)cc2)n(-c2ccc(F)cc2)c1 | 126 to 127 °C |
| CCOc1ccc(-c2nc(-c3cc4c(c(C(=O)O)c3)OC(C)(C)C4)cs2)cc1OCC | 106 to 107 °C |

Next, values leading:

| melting point | Compound |
| --- | --- |
| 115 °C | CCCN(c1nc(-c2ccc(OC)cc2Cl)c(C)s1)c1cc(CO)ccc1OC |
| 93 to 94 °C | CCC(O)(c1ccccc1)c1ccccc1 |
| 114 to 115 °C | c1ccc2c(c1)[C@H](N1CCCCC1)C[C@@H]2N1CCCCC1 |
| 206 to 207 °C | Cc1ccc(NC(=O)c2ccc(CN3CCN(C)CC3)c(C(F)F)c2)cc1Nc1nccc(-c2cncnc2)n1 |
| 211 to 213 °C | CCC(=O)Nc1ccc(-c2ccnc3c(C(=O)c4ccccc4)cnn23)cc1 |
| 93 to 96 °C | COc1cc(C(=O)COC(C)=O)ccc1OCCCCl |
| 75 to 80 °C | NCCN1CCOC(c2ccccc2)(c2ccccc2)CC1 |
| 113 °C | N#CCN1CC[C@@H](NCc2ccccc2)[C@H](O)C1 (relative stereo) |
| 162 to 164 °C | O=C(O)CCC(=O)c1cccc([N+](=O)[O-])c1 |
| 62 °C | CCCCC[C@H]1CC[C@H](c2ccc(C#Cc3ccc(OC(F)F)cc3)cc2)CC1 |
| 78.4 to 79.5 °C | CCCCCCOc1ccc(CC(C)C(=O)Oc2ccc(-c3ccc(F)cc3)cc2)cc1 (configuration not stated) |
| 187 to 189 °C | COc1cc(CBr)ccc1-c1ccccc1 |
| 145 to 146 °C | CC1(C(O)C(c2cccc(Cl)c2)n2ccnc2)COC1 (configuration not stated) |
| 200 to 202 °C | O=C(O)c1ccc(-c2nn(Cc3ccccc3)c3ccccc23)o1 |
| 243 to 244 °C | Cc1cc(Nc2cncc(Nc3cccc(NC(=O)c4ccccc4)c3)n2)n[nH]1 |
| 185 to 188 °C | O=C(O)CNS(=O)(=O)c1cc2ccc(Cl)cc2cc1Cl |
| 159 to 160 °C | ClCc1ccc(OCCOc2ccccc2)cc1 |
| 57 to 58 °C | Clc1ccc(CCOc2ncnc3ccccc23)cc1 |

| melting point | Compound |
| --- | --- |
| 167 to 169 °C | COc1cc(OC)nc(C(=O)NS(=O)(=O)NC(C)C)n1 |
| 97 °C | COc1cc(C(=O)c2ccc(C(F)(F)F)cc2)ccc1O |
| 145 to 148 °C | COc1cc(OC)cc(-c2nc(-c3ccccn3)no2)c1 |
| 152 to 156 °C | CCN1CC(SCC2CC2)(C(F)(F)F)c2cc(Cl)ccc2NC1=O (configuration not stated) |
| 168 to 170 °C | CON(C)CCNc1ncnc2nc[nH]c12 |
| 162 to 170 °C | O=C(O)c1cc(Oc2c(Br)cc(Br)cc2Br)ccc1[N+](=O)[O-] |
| 219 to 220 °C | O=c1[nH]c(COc2cccc(Cl)c2Cl)nc2nccnc12 |
| 201 to 202 °C | Oc1cccc(-c2nc3n(n2)CCc2ccccc2-3)c1 |
| 116 °C | NCCNc1ccc([N+](=O)[O-])cc1Cl |
| 270 to 271 °C | CN1CCN2C(=O)Nc3ccc(Cl)cc3C12c1ccccc1 (configuration not stated) |
| 152 to 154 °C | Cc1cc(C)c2c(c1O)CCC2=O |
| 85 to 86 °C | CC(Oc1ncnc2ccccc12)c1ccc(C(C)(C)C)cc1 (configuration not stated) |
| 70 to 73 °C | CC(C)(C)C(=O)C=C(c1ccccc1)n1cncn1 |
| 110 to 112 °C | CC(=O)Oc1cnccc1CCCOc1cccnc1Oc1cccc(Br)c1 |
| 168 to 169 °C | CCCCS(=O)(=O)NC(=O)c1ccc(C(=O)NCCO)nc1 |
| 195 °C | CCCCC1NC(C(=O)O)CS1 (mixture of isomers) |
| 55 to 56 °C | CCCCCCCCCCCCCCc1ccc(OCC(O)CO)c(CC)c1 (configuration not stated) |
| 152 to 155 °C | Cc1nc2c(N)nc3ccccc3c2n1CCOCCNS(C)(=O)=O |
